Source: ChEMBL document CHEMBL4622884, “Synthesis of novel 3,5,6-trisubstituted 2-pyridone derivatives and evaluation for their anti-inflammatory activity” (Bioorg Med Chem, 2020)
Activity calls are given as the source filed them. The calls are words filed in the database; no cut-off is given here.

Experiments:
[1] = Cytotoxicity against mouse J774A1 cells assessed as reduction in cell viability measured after 48 hrs by MTT assay; format: cell-based, J774.A1
[2] = Cytotoxicity against mouse L929 cells assessed as reduction in cell viability measured after 72 hrs by MTT assay; format: cell-based
[3] = system: Mus musculus; experiment: Anti-inflammatory activity against croton oil-induced ear edema in Swiss mouse model assessed as inhibition of ear edema at 1.25 mg/ear administered topically immediately after croton oil-stimulation and measured after 6 hrs relative to control; format: functional
[4] = system: Mus musculus; experiment: Anti-inflammatory activity against croton oil-induced ear edema in Swiss mouse model assessed as inhibition of myeloperoxidase activity at 1.25 mg/ear administered topically immediately after croton oil-stimulation and measured after 6 hrs by microplate spectrophotometry relative to control; format: functional
[5] = system: Mus musculus; experiment: Anti-inflammatory activity against croton oil-induced ear edema in Swiss mouse model assessed as inhibition of myeloperoxidase activity at 0.625 mg/ear administered topically immediately after croton oil-stimulation and measured after 6 hrs by microplate spectrophotometry relative to control; format: functional
[6] = system: Mus musculus; experiment: Anti-inflammatory activity against croton oil-induced ear edema in Swiss mouse model assessed as inhibition of ear edema at 0.625 mg/ear administered topically immediately after croton oil-stimulation and measured after 6 hrs relative to control; format: functional
[7] = species on record: Ovis aries; experiment: Selectivity index, ratio of IC50 of ovine COX-1 to […]
[8] = biological target: T1, Prostaglandin G/H synthase 2 (Homo sapiens) (UniProt P35354); experiment: Inhibition of recombinant human COX-2 at 1.95 uM by microplate reader based assay relative to control
T1 sequence (whole entry): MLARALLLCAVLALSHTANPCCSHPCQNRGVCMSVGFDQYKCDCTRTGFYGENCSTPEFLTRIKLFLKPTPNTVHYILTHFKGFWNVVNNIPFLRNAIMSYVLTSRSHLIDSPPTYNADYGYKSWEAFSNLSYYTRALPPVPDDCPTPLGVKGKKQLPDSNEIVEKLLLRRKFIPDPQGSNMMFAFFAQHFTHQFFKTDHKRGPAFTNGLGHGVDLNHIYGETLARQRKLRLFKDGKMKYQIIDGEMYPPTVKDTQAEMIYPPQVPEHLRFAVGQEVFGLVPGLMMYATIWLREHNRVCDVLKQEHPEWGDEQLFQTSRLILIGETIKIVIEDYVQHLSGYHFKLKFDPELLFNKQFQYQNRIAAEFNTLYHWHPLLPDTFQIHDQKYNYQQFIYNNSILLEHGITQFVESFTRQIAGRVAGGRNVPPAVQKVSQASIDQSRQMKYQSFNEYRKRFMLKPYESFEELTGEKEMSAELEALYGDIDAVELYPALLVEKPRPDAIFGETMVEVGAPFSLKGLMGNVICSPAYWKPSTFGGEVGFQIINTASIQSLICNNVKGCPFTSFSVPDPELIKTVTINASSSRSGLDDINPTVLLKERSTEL

[9] = biological target: T1, Prostaglandin G/H synthase 2 (Homo sapiens); experiment: Inhibition of recombinant human COX-2 at 31.25 uM by microplate reader based assay relative to control
[10] = system: Mus musculus; experiment: Anti-inflammatory activity against croton oil-induced ear edema in Swiss mouse model assessed as inhibition of myeloperoxidase activity at 1 mg/ear administered topically immediately after croton oil-stimulation and measured after 6 hrs by microplate spectrophotometry relative to control; format: functional
[11] = system: Mus musculus; experiment: Anti-inflammatory activity against croton oil-induced ear edema in Swiss mouse model assessed as inhibition of ear edema at 1 mg/ear administered topically immediately after croton oil-stimulation and measured after 6 hrs relative to control; format: functional
[12] = biological target: T2, COX-1 (Prostaglandin G/H synthase 1) (Ovis aries, UniProt P05979); experiment: Inhibition of ovine COX-1 at 31.25 uM by microplate reader based assay relative to control; conditions: sheep, ovine COX-1 enzyme
T2 sequence (P05979 whole entry): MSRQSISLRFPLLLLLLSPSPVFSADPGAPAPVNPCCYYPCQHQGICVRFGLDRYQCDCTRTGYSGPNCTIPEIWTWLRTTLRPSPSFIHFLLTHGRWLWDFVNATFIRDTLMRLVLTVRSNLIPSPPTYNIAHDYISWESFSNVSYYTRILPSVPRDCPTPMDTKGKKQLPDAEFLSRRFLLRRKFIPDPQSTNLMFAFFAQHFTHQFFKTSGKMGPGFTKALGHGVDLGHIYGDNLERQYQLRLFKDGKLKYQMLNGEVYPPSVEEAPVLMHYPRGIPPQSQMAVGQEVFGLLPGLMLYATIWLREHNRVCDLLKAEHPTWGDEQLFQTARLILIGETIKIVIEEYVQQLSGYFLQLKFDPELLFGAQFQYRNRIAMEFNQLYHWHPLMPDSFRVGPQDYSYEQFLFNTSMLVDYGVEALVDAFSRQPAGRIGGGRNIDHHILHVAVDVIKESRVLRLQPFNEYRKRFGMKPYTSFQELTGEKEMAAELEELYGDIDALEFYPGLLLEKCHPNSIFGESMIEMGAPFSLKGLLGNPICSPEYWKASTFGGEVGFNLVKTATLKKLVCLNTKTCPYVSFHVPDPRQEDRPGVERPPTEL

[13] = biological target: T2, COX-1 (Prostaglandin G/H synthase 1); experiment: Inhibition of ovine COX-1 at 1.95 uM by microplate reader based assay relative to control; conditions: sheep, ovine COX-1 enzyme

Row | Compound | CC50 at 48 h [1] [µM] | CC50 at 72 h [2] [µM] | inhibition (INH) [4] [%] | inhibition (INH) [5] [%] | inhibition (INH) [3] [%] | inhibition (INH) [6] [%] | further results
1 | CCOC(=O)c1[nH]c(=O)c(C#N)cc1C(=O)c1ccc(Br)cc1 | < 100 | 242 | – | – | – | – | inhibition [3]: Active
2 | CCOC(=O)c1[nH]c(=O)c(C#N)cc1C(=O)c1ccc(Cl)cc1 | < 100 | 218 | 99 | 99 | 73.9 | – | –
3 | O=C(c1ccc(Cl)cc1)c1cc(C(=O)O)c(=O)[nH]c1C(=O)O | – | – | 99 | 89.4 | 54.2 | 84 | –
4 | CS(=O)(=O)c1ccc(-c2cc(Cn3ccnc3)c3ccc(C4CCCCC4)c(C4CCCCC4)c3n2)cc1 | – | – | – | – | – | – | Ratio IC50 [7]: 548
5 | CCOC(=O)c1[nH]c(=O)c(C(=O)O)cc1C(=O)c1ccc(Cl)cc1 | – | – | 93 | 99 | – | – | –
6 | CCOC(=O)c1[nH]c(=O)c(C#N)cc1C(=O)c1ccc(F)cc1 | < 100 | 232 | – | – | – | – | inhibition [3]: Active
7 | CCOC(=O)c1[nH]c(=O)c(C(=O)OCC)cc1C(=O)c1ccc(Cl)cc1 | – | – | 88.1 | 94.4 | – | – | –
8 | CCOC(=O)c1[nH]c(=O)c(C#N)cc1C(=O)c1ccc(C)cc1 | 194 | 512 | – | – | – | – | inhibition [3]: Active
9 | N#Cc1cc(C(=O)c2ccc([N+](=O)[O-])cc2)c(C(=O)O)[nH]c1=O | – | – | 97.6 | 99 | 64.6 | – | –
10 | CCOC(=O)c1[nH]c(=O)c(C#N)cc1C(=O)c1ccc([N+](=O)[O-])cc1.CNC [listing 1 of 2 here] | – | – | – | – | – | – | inhibition [8]: 74%; inhibition [9]: 10.1%
11 | N#Cc1cc(C(=O)c2ccc(Cl)cc2)c(C(=O)O)[nH]c1=O | – | – | – | 84.5 | – | 74.5 | –
12 | COc1ccc2c(c1)c(CC(=O)O)c(C)n2C(=O)c1ccc(Cl)cc1 [INDOMETHACIN] | – | – | – | – | – | – | inhibition (INH) [10]: 48%; inhibition (INH) [11]: 98.2%
13 | CCOC(=O)c1[nH]c(=O)c(C#N)cc1C(=O)c1ccc(OC)cc1 | < 100 | 259 | – | – | – | – | inhibition [3]: Active
14 | O=C(c1ccc([N+](=O)[O-])cc1)c1cc(C(=O)O)c(=O)[nH]c1C(=O)O | 388 | 439 | 94.3 | 99.6 | 93 | 90.8 | inhibition at 31.25 µM [12]: 36.8%; inhibition at 1.95 µM [13]: 12.4%; inhibition [8]: 20.2%; inhibition [9]: 38.1%
15 | CCOC(=O)c1[nH]c(=O)c(C(=O)OCC)cc1C(=O)c1ccc([N+](=O)[O-])cc1 | – | – | 99 | 99 | 87.9 | 66.3 | –
16 | CCOC(=O)c1[nH]c(=O)c(C#N)cc1C(=O)c1ccc([N+](=O)[O-])cc1.CNC [listing 2 of 2 here] | < 100 | 257 | 98.9 | 99 | 98.9 | 70 | inhibition at 31.25 µM [12]: 16.3%
17 | CCOC(=O)c1[nH]c(=O)c(C#N)cc1C(=O)c1ccc(Cl)cc1.CNC | – | – | 99.9 | 99 | 71.3 | 70.1 | –
18 | CCOC(=O)c1[nH]c(=O)c(C#N)cc1C(=O)c1ccc([N+](=O)[O-])cc1 | < 100 | 213 | 99 | 99 | 93 | – | –
19 | CCOC(=O)c1[nH]c(=O)c(C#N)cc1C(=O)c1ccccc1 | 215 | 465 | – | – | – | – | inhibition [3]: Active
